From patent US4611001A, “Antimycotic pyrazolotetrathiepins” (E. I. Du Pont de Nemours and Company, priority 1985, dated 1986)
Values after ≈ are worked out from the molar mass of the structure shown.

Key:
[1] = tested on: Microsporum gypseum (MICRO-1); experiment: Protocol 1: agar dilution MIC, Sabouraud dextrose agar; format: cell-based, Microsporum gypseum ATCC e9083; details: Nannizzia gypsea
Excerpt: (§1) The fused pyrazolotetrathiepins of the invention are useful as antimycotic agents. The data is a result of different state of the art protocols, which employ either agar dilution or microtiter broth dilution techniques.
(§2) The test organisms used are two yeasts, Candida albicans ATCC 11651 (CAND-1), C. albicans ATCC e10231 (CAND-2) and two dermatophyte strains. Microsporum gypseum ATCC e9083 (MICRO-1) and Trichophyton rubrum ATCC 18756 (TRICH-1). These organisms are standardized to a concentration of 10^7 organisms/mL, aliquoted and frozen at -70°.
(§3) The compounds are dissolved in dimethyl sulfoxide (DMSO) and tested at specific concentrations required for the particular assay.
(§4) Appropriate standards are included with each assay. Their minimal inhibitory concentrations (MIC) values are shown in Table 4 according to the particular protocol used. Stock solutions of standard agents are stored at -70° and diluted the day of the assay. […]
(§5) The compound is tested at four specific concentrations within the range of 100 μg/mL-0.04 μg/mL and is incorporated directly into 20 mL molten agar (50°). […] The plates are incubated at ambient temperature for seven days and the MIC values determined.

[2] = tested on: Trichophyton rubrum (TRICH-1); experiment: as above; format: cell-based, Trichophyton rubrum ATCC 18756
Excerpt: as §1, §2, §3, §4, §5

[3] = tested on: Candida albicans (CAND-1); experiment: Protocol 4: microtiter broth dilution MIC, Yeast Nitrogen Base broth pH 7.0; format: cell-based, Candida albicans ATCC 11651; details: for MIC: Candida albicans
Excerpt: as §1, §2, §3
(§6) Appropriate standards are included with each assay. Their minimal inhibitory concentrations (MIC) values are shown in Table 4 according to the particular protocol used. Stock solutions of standard agents are stored at -70° and diluted the day of the assay.
(§7) Protocols 4 and 5 both utilize a standard microtiter broth dilution method described by Barry (Antimicrobic Susceptibilty Test: Principles and Practices, Lea and Febiger, 1976) but each uses a different medium. Protocol 4 uses Yeast Nitrogen Base broth pH 7.0 [Shadomy, S. Applied Microbiology, 17, 871-877 (1969)] while protocol 5 uses EMEM broth pH 7.4. The test organisms, CAND-1 and CAND-2 are diluted in the appropriate broth to achieve an inoculum of 1×10^4 CFUs/mL.
(§8) The compounds are tested from 100 μg/mL-0.4 μg/mL in 10-two fold serial dilutions and the assay is incubated at 37°, 5% CO2 for 24 hrs. MFC's are then determined as previously described but the plates are incubated under the conditions appropriate for Candida spp.

[4] = tested on: Candida albicans (CAND-2); experiment: as above; format: cell-based, C. albicans ATCC e10231; details: for MIC: Candida albicans
Excerpt: as §1, §2, §3, §6, §7, §8

[5] = tested on: Candida albicans (CAND-1); experiment: Protocol 5: microtiter broth dilution MIC/MFC, EMEM broth pH 7.4; format: cell-based, Candida albicans ATCC 11651
Excerpt: as §1, §2, §3, §6, §7, §8

[6] = tested on: Candida albicans (CAND-2); experiment: as above; format: cell-based, C. albicans ATCC e10231
Excerpt: as §1, §2, §3, §6, §7, §8

[7] = tested on: Microsporum gypseum (MICRO-1); experiment: Protocol 2: agar dilution MIC, Eagle's Minimum Essential Medium Agar (EMEM); format: cell-based, Microsporum gypseum ATCC e9083; details: Nannizzia gypsea
Excerpt: as §1, §2, §3, §6
(§9) Protocols 1 & 2 use a modification of the agar dilution method (Barry, A. L., The Antimicrobic Susceptibility Test: Principles and Practices, Lea and Febiger, 1976) with either Sabouraud dextrose agar (protocol 1) or Eagle's Minimum Essential Medium Agar (EMEM) (protocol 2).
(§10) The compound is tested at four specific concentrations within the range of 100 μg/mL-0.04 μg/mL and is incorporated directly into 20 mL molten agar (50°). The plates are then inoculated with the spore suspensions of MICRO-1 and TRICH-1 at 5×10^6 spores/mL using a multi point inoculator. The plates are incubated at ambient temperature for seven days and the MIC values determined.

[8] = tested on: Trichophyton rubrum (TRICH-1); experiment: as above; format: cell-based, Trichophyton rubrum ATCC 18756
Excerpt: as §1, §2, §3, §6, §9, §10

[9] = tested on: Candida albicans (CAND-1); experiment: In vitro dilution MIC, protocol not given; format: cell-based, Candida albicans ATCC 11651; details: up to 100 μg/mL
Excerpt: as §1, §2, §3
as §7, with “The test organisms, CAND-1 and CAND-2 are diluted in the appropriate broth to achieve an inoculum of 1×10^4 CFUs/mL.” left out
as §8

[10] = tested on: Candida albicans (CAND-2); experiment: In vitro dilution MIC, protocol not given; format: cell-based, C. albicans ATCC e10231; details: up to 100 μg/mL
Excerpt: as §1, §2, §3
as §7, with “The test organisms, CAND-1 and CAND-2 are diluted in the appropriate broth to achieve an inoculum of 1×10^4 CFUs/mL.” left out
as §8

[11] = tested on: Microsporum gypseum (MICRO-1); experiment: Protocol 3: microtiter broth dilution MIC/MFC for dermatophytes, EMEM; format: cell-based, Microsporum gypseum ATCC e9083; details: Nannizzia gypsea
Excerpt: as §1, §2, §3, §6
(§11) Protocol 3 is a microtiter broth dilution assay that has been adapted for dermatophytes using EMEM and is described by Granade and Artis, J. Clin. Micro., 6, 1043-1047 (1982). Both strains of dermatophytes, MICRO-1 and TRICH-1 are diluted in broth to achieve an inoculum of 1×10^4 spores/mL. The compound is serially diluted from 100 μg/mL to 0.4 μg/mL in 10-two fold dilutions. The test is incubated at 30° for 72 hrs and the MIC values are determined. The minimum fungicidal concentration (MFC) assay is performed using the 72 hr microtiter plates. (Szoka, F., Mycology Observer, November-December, 1983). These plates are shaken vigorously and lμl/broth well is transferred with a micropipetter onto the appropirate well on a 24 well agar (EMEM) plate. These plates are then incubated at 30° for 72 hrs and read for MFC's.

[12] = tested on: Trichophyton rubrum (TRICH-1); experiment: as above; format: cell-based, Trichophyton rubrum ATCC 18756
Excerpt: as §1, §2, §3, §6, §11

[13] = tested on: fungi; experiment: in vitro antifungal (antimycotic) activity, general statement; format: cell-based; details: by-product; test not specified
Excerpt: as §1

[14] = Candida albicans, Protocol 5, 37°, 5% CO2, 24 hrs, read-out: MIC CAND-1
[15] = Candida albicans, Protocol 5, 37°, 5% CO2, 24 hrs, read-out: MIC CAND-2
[16] = 168 h, Protocol 2, ambient temperature, seven days, read-out: MIC MICRO-1
[17] = 168 h, Protocol 2, ambient temperature, seven days, read-out: MIC TRICH-1
[18] = Protocol 4, mean of five determinations ± standard deviation
[19] = Protocol 5, mean of five determinations ± standard deviation
[20] = Protocol 4, mean of five determinations ± standard deviation, read-out: MIC CAND-1 of standards
[21] = Protocol 4, mean of five determinations ± standard deviation, read-out: MIC CAND-2 of standards
[22] = Candida albicans, Protocol 5, mean of five determinations ± standard deviation, read-out: MIC CAND-1 of standards
[23] = Candida albicans, Protocol 5, mean of five determinations ± standard deviation, read-out: MIC CAND-2 of standards

SMILES: Cn1cc2c(n1)SSSC(C)(C)S2 [Example 5, 2,2-Dimethyl-7-methyl-1,3,4,5-pyrazolotetrathiepin]
- MIC ([1]; 168 h, Protocol 1, ambient temperature, seven days, read-out: MIC MICRO-1): 4 µg/mL (≈ 16 µM)
- MIC ([2]; 168 h, Protocol 1, ambient temperature, seven days, read-out: MIC TRICH-1): 4 µg/mL (≈ 16 µM)
- MIC ([3]; Protocol 4, 37°, 5% CO2, 24 hrs, read-out: MIC CAND-1): 12.5 µg/mL (≈ 49.9 µM)
- MIC ([4]; Protocol 4, 37°, 5% CO2, 24 hrs, read-out: MIC CAND-2): 6.3 µg/mL (≈ 25.2 µM)
- MIC [5, 14]: 3.2 µg/mL (≈ 12.8 µM)
- MIC [6, 15]: 1.6 µg/mL (≈ 6.39 µM)

SMILES: CC1(C)SSSc2cn(-c3ccccc3)nc2S1 [Example 3, 4,4-Dimethyl-7-phenyl-1,2,3,5-pyrazolotetrathiepin]
- MIC [7, 16]: 1 µg/mL (≈ 3.2 µM)
- MIC [8, 17]: 1 µg/mL (≈ 3.2 µM)
- MIC CAND-1 (in words) [9]: Inactive at 100 μg/mL
- MIC CAND-2 (in words) [10]: Inactive at 100 μg/mL

SMILES: CC1(C)SSSc2nn(-c3ccccc3)cc2S1 [Example 2, 2,2-Dimethyl-7-phenyl-1,3,4,5-pyrazolotetrathiepin]
- MIC [7, 16]: 1 µg/mL (≈ 3.2 µM)
- MIC [8, 17]: 0.2 µg/mL (≈ 0.64 µM)
- MIC CAND-1 (in words) [9]: Inactive at 100 μg/mL
- MIC CAND-2 (in words) [10]: Inactive at 100 μg/mL

SMILES: C[C@@H]1[C@H](O)[C@@H](C)/C=C/C=C/C=C/C=C/C=C/C=C/C=C/[C@H](O[C@@H]2O[C@H](C)[C@@H](O)[C@H](N)[C@@H]2O)C[C@@H]2O[C@](O)(C[C@@H](O)C[C@@H](O)[C@H](O)CC[C@@H](O)C[C@@H](O)CC(=O)O[C@H]1C)C[C@H](O)[C@H]2C(=O)O [Amphotericin B]
- MIC CAND-1 of standards [3, 18]: 0.6 ± 0.2 µg/mL
- MIC CAND-2 of standards [4, 18]: 0.5 ± 0.3 µg/mL
- MIC CAND-1 of standards [5, 19]: 0.5 ± 0.3 µg/mL
- MIC CAND-2 of standards [6, 19]: 0.7 ± 0.3 µg/mL

SMILES: COC1=CC(=O)C[C@@H](C)[C@]12Oc1c(Cl)c(OC)cc(OC)c1C2=O [Griseofulvin]
- MIC ([1]; Protocol 1, mean of five determinations ± standard deviation, read-out: MIC MICRO-1 of standards): 2 ± 0.7 µg/mL (≈ 5.67 µM)
- MIC ([2]; Protocol 1, mean of five determinations ± standard deviation, read-out: MIC TRICH-1 of standards): 1.8 ± 0.7 µg/mL (≈ 5.1 µM)
- MIC ([7]; Protocol 2, mean of five determinations ± standard deviation, read-out: MIC MICRO-1 of standards): 4.5 ± 3 µg/mL (≈ 12.8 µM)
- MIC ([8]; Protocol 2, mean of five determinations ± standard deviation, read-out: MIC TRICH-1 of standards): 9.4 ± 4 µg/mL (≈ 26.6 µM)
- MIC ([11]; Protocol 3, mean of five determinations ± standard deviation, read-out: MIC MICRO-1 of standards): 5.4 ± 2 µg/mL (≈ 15.3 µM)
- MIC ([12]; Protocol 3, mean of five determinations ± standard deviation, read-out: MIC TRICH-1 of standards): 6.3 µg/mL (≈ 17.9 µM)

SMILES: C[C@@H]1[C@H](O)[C@@H](C)/C=C/C=C/CC/C=C/C=C/C=C/C=C/C(O[C@H]2O[C@H](C)[C@@H](O)[C@H](N)[C@@H]2O)CC2O[C@](O)(CC(O)C(O)CCC(O)CC(O)CC(O)CC(=O)O[C@H]1C)CC(O)C2C(=O)O (stereo partly shown) [Nystatin]
- MIC CAND-1 of standards [3, 18]: 6.0 ± 2.0 µg/mL
- MIC CAND-2 of standards [4, 18]: 5.0 ± 1.5 µg/mL
- MIC CAND-1 of standards [5, 19]: 5.0 ± 0 µg/mL
- MIC CAND-2 of standards [6, 19]: 4.5 ± 1.0 µg/mL

SMILES: Cn1cc2c(n1)SSC(C)(C)SS2 [Example 4, 3,3-Dimethyl-7-methyl-1,2,4,5-pyrazolotetrathiepin]
- MIC ([11]; Protocol 3, 30°, 72 hrs, read-out: MIC MICRO-1): 12.5 µg/mL (≈ 49.9 µM)
- MFC ([11]; Protocol 3, in brackets, subculture on EMEM agar 30°, 72 hrs, read-out: MFC MICRO-1 (minimum fungicidal concentration)): 25 µg/mL (≈ 99.8 µM)
- MIC ([12]; Protocol 3, 30°, 72 hrs, read-out: MIC TRICH-1): 12.5 µg/mL (≈ 49.9 µM)
- MFC ([12]; Protocol 3, in brackets, subculture on EMEM agar 30°, 72 hrs, read-out: MFC TRICH-1 (minimum fungicidal concentration)): 25 µg/mL (≈ 99.8 µM)
- MIC [5, 14]: 25 µg/mL (≈ 99.8 µM)
- MFC ([5]; Candida albicans, Protocol 5, in brackets, read-out: MFC CAND-1 (minimum fungicidal concentration)): 50 µg/mL (≈ 200 µM)
- MIC [6, 15]: 25 µg/mL (≈ 99.8 µM)
- MFC ([6]; Candida albicans, Protocol 5, in brackets, read-out: MFC CAND-2 (minimum fungicidal concentration)): 50 µg/mL (≈ 200 µM)

SMILES: CC(=O)N1CCN(c2ccc(OCC3COC(Cn4ccnc4)(c4ccc(Cl)cc4Cl)O3)cc2)CC1 (stereo not shown) [Ketoconazole]
- MIC [3, 20]: 0.15 ± 0.1 µg/mL (≈ 0.282 µM)
- MIC [4, 21]: 0.22 ± 0.04 µg/mL (≈ 0.414 µM)
- MIC [5, 22]: 0.3 ± 0.04 µg/mL (≈ 0.565 µM)
- MIC [6, 23]: 0.2 ± 0.04 µg/mL (≈ 0.376 µM)

SMILES: CC1(C)SSc2cn(-c3ccccc3)nc2SS1 [3,3-dimethyl-7-phenyl-1,2,4,5-pyrazolotetrathiepin]
- activity (in words) [13]: inactive

SMILES: Clc1ccc(COC(Cn2ccnc2)c2ccc(Cl)cc2Cl)c(Cl)c1 (stereo not shown) [Miconazole]
- MIC ([3]; read-out: MIC CAND-1 of standards): 0.36 ± 0.12 µg/mL (≈ 0.865 µM)
- MIC ([4]; read-out: MIC CAND-2 of standards): 0.5 ± 0.2 µg/mL (≈ 1.2 µM)
- MIC ([5]; Candida albicans, read-out: MIC CAND-1 of standards): 0.5 ± 0.4 µg/mL (≈ 1.2 µM)
- MIC ([6]; Candida albicans, read-out: MIC CAND-2 of standards): 0.5 ± 0.4 µg/mL (≈ 1.2 µM)

SMILES: Nc1nc(=O)[nH]cc1F [5-Fluorocytosine]
- MIC [3, 20]: 0.7 ± 0.2 µg/mL (≈ 5.42 µM)
- MIC [4, 21]: 1.1 ± 0.4 µg/mL (≈ 8.52 µM)
- MIC [5, 22]: 1.1 ± 0.4 µg/mL (≈ 8.52 µM)
- MIC [6, 23]: 1.3 ± 0.4 µg/mL (≈ 10.1 µM)
